The subject of data set [1] is lung (A549) carcinoma cell line. Kind of data set: cells. Particulars: for IC50: 72 hours, read-out: Cytotoxic activity IC50, A549; for IC90: read-out: Cytotoxic activity IC90, A549. Format: cell-based, human.
Method: (§4) Pure compounds are evaluated against the human cancer cell lines comprising our cytotoxicity screening panel. Cytotoxicity assays involving oral epidermoid (KB), colon (HCT116), prostate (LNCaP), breast (MCF7), Hela (cervical), leukemia (HL-60) melanoma (A375) and lung (A549) carcinoma cell lines, are performed using sulforhodamine B according to established protocols (Zhang et al., Journal of Medicinal Chemistry 2006; 49: 693-708; and Jutiviboonsuk A et al., Phytochemistry 2005; 66: 2745-2751.). KB and A375 cells are maintained in DMEM (Dulbecco's modified Eagle medium) medium. LNCaP and HL60 cells are maintained in RPMI1640 medium with hormone-free 10% heat-activated FBS (fetal bovine serum) supplemented with 0.1 nM testosterone. MCF7 and Hela cells are maintained and assayed in MEME (Minimum Essential Medium Eagle) medium containing 10 mg/L of insulin. HCT116 cells are maintained in McCoy's 5A medium supplemented with 10% fetal bovine serum. A549 cells are maintained in RPMI-1640 medium supplemented with 10% FCS. Serial dilutions of the compounds are prepared using 10% aqueous DMSO as solvent. The 190 μL cell suspension (3×10^4 cells in 1 ml media) is incubated with 10 μL sample solutions, in triplicate, in 96-well tissue culture plate at 37° C. in a humidified atmosphere of 5% CO2 in air for 72 hours. 10 μL 10% aqueous DMSO is used as control group. Then the cells are fixed to plastic substratum by the addition of 100 μL cold 20% aqueous trichloroacetic acid and washing with water after incubation at 4° C. for 30 min. After staining cells with 100 μL of 0.4% sulforhodamine B in 1% aqueous AcOH for 30 min, unbound dye is removed by rinsing with 1% aqueous AcOH. The bound dye is solubilized with 200 μL 10 mM unbuffered Tris base, pH 10, and the optical density is measured at 515 nm using an ELISA plate reader. The average data are expressed as a percentage, relative to the control. The IC50 values, the dose that inhibit cell growth by 50%, are calculated using nonlinear regression analysis (percent survival versus concentration).
Data set [2] deals with murine P388 leukemia cells. As to conditions: at a concentration of 10 ng/mL.
Data set [3] deals with breast (MCF7) carcinoma cell line. Kind of data set: cells. As to conditions: for IC50: 72 hours, read-out: Cytotoxic activity IC50, MCF7; for IC90: read-out: Cytotoxic activity IC90, MCF7. Format: cell-based, human.
Method: as §4
Data set [4] is described as follows: Body weight of mice after drug treatment. Particulars: for Drop of average weight of mice after the first treatment: i.p. injection; for Drop of average weight of mice after six treatments: twice a week.
The subject of data set [5] is oral epidermoid (KB) carcinoma cell line. Kind of data set: Cytotoxicity assay (sulforhodamine B), KB. It is filed as cell-based, human. Particulars: KB cells; for IC50: 72 hours, read-out: Cytotoxic activity IC50, KB.
Method: as §4
The test system of data set [6] is prostate (LNCaP) carcinoma cell line. Kind of data set: cells. Format: cell-based, human. As to conditions: 72 hours, read-out: Cytotoxic activity IC50, LNCaP.
Method: as §4
Data set [7] deals with colon (HCT116) carcinoma cell line. Kind of data set: Cytotoxicity assay (sulforhodamine B), HCT116. Particulars: for IC50: read-out: Cytotoxic activity IC50, HCT116.
Method: as §4
Data set [8] deals with 3T3-L1 murine adipocytes. Kind of data set: 3T3-L1 fat accumulation (triglyceride) assay. As to conditions: differentiated 3T3-L1 adipocytes, 7 days, read-out: Anti-obesity activity (fat accumulation) EC50. Format: cell-based. As to the method: (§1) MV-A, MV-B, MV-C and MV-D are evaluated for their anti-obesity effects in 3T3-L1 murine adipocytes. 3T3-L1 cells are cultured in the presence of insulin to induce adipocyte differentiation.
(§2) Pure compounds are evaluated against 3T3-L1 cell line for their potential anti-obesity activity. […] After the cells reach 100% confluence, the culture medium is changed to a differentiation DMEM medium containing 10% FCS, […], 0.5 mM 3-isobutyl-1-methylxanthine (IBMX), 90 U/mL penicillin, […] and 10 μg/mL insulin for induction of the adipocyte form of the 3T3-L1 cells. After 2 days, the differentiation medium is changed back to the normal DMEM medium and refreshed with the normal medium every 2 days. After incubation of additional 7 days, the cells are seeded in two sets of 96-well plates (about 10,000 cells per well). The test compounds in different concentrations are then added to the wells with 0.5% aqueous DMSO as control group. After incubation of 7 days, the differentiated 3T3-L1 adipocytes are treated with 2% Triton-X 100 ([…]) for 30 min at room temperature followed by sonication for 1 min. Fat accumulation is determined by measuring the liberated triglyceride using a Wato Triglyceride E-test Kit with the absorbance at 630/690 nm. The fat-accumulation rate is calculated as a percentage of the DMSO control. […] The cell viability of the differentiated 3T3-L1 adipocytes in another 96-well plate is treated with a Wako Cell Counting Kit-8 Test and measured with the absorbance at 450 nm. The cell viability is calculated as a percentage of the control.

Data set [9] deals with 3T3-L1 murine adipocytes. Kind of data set: 3T3-L1 adipocyte cell viability. As to conditions: differentiated 3T3-L1 adipocytes. It is filed as cell-based. As to the method:
as §1, §2

For data set [10], the system named is panel of cancer cell lines comprising KB, HCT116, LNCaP, A549, MCF7, HL60, Hela and A375. Particulars: at 2 μM.
The test system of data set [11] is HIV (human immunodeficiency virus).
In data set [12] the test system is lung cancer cell line (A549). Kind of data set: Hollow fiber in vivo test, A549. On the set-up: species or system mouse. As to conditions: 2.0 mg/kg. As to the method: (§3) Hollow fiber tests are well known in the art for providing preliminary indications of therapeutic efficacy (Mi et al. J. Nat. Prod. 2002, 65: 842-850). In hollow fiber tests, human tumor cell lines currently employed in cell cultures are grown inside semipermeable hollow fibers to form heterogeneous solid tumor models. […] By evaluating the test compound's inhibition of tumor cell growth versus the toxic response in the host, a preliminary estimate of therapeutic efficacy is provided in a cost- and time effective manner.

Data set [13] has as its system HCT116-tumor xenograft. Kind of data set: HCT116 xenograft mouse model. It is filed as in vivo. Particulars: 5 mg/kg, every other day for 21 days. As to the method:
The treatment started on the 6th day when the HCT116-tumor reached approximately 100 mm^3 (L×W×W). […] All mice died for the maytansine group after the initial two treatments at the dose of 0.1 mg/kg, indicating the highly toxicity of maytansine.

In data set [14] the test system is melanoma cancer cell line (A375). Kind of data set: Hollow fiber in vivo test, A375. Particulars: 2.0 mg/kg. Further details: species or system mouse. As to the method:
as §3

In data set [15] the test system is colon cancer cell line (HCT116). Kind of data set: Hollow fiber in vivo test, HCT116. Further details: species or system mouse. As to conditions: 2.0 mg/kg. As to the method: as §3
In data set [16] the test system is MCF7-tumor xenograft. Kind of data set: MCF7 xenograft mouse model. Particulars: 5 mg/kg, twice a week for 3 weeks. As to the method: The treatment started on the 12th day when the MCF7-tumor size reached approximately 100 mm^3 (L×W×H). Two doses of MV-A (1.0 and 2.0 mg/kg), paclitaxel (5 mg/kg), and vehicle were administered via i.p. (intraperitoneal), i.v. (intravenous), or oral respectively, to the tumor-bearing mice twice a week for 3 weeks ([…]).
Antitumor animal study. All animal studies were approved and performed according to Animal Care and Use Guidelines of the Animal Ethics Committee at Hong Kong Baptist University and performed following Animal Care and Use guidelines set by NIH (National Institute of Health, USA). BALB/c nude mice, SPF class, male or female, 5-6 weeks old, were purchased from Charles River Laboratories. Before the experiment, it is one week of acclimatization to SPF class laboratory conditions. MV-A is tested for its anticancer activity against HCT116 and MCF7 cancer cells using a number of nude mice (Balc/nu/nu, female) in comparison of paclitaxel and maytansine. HCT116 or MCF7 cancer cells are subcutaneously implanted with 5×10^6 cells in the rear flank of each mouse. Female mice receiving MCF-7 cells are implanted with an s.c. pellet of 17β-estradiol (0.72 mg/pellet) a few days prior to injection to induce tumors. […] The mice are divided into 5 groups for HCT116 cancer cells: one high dose (1.0 mg/kg: 10 mice) group of MV-A, one low dose (0.5 mg/kg: 10 mice) group of MV-A, one dose (5.0 mg/kg: 10 mice) of paclitaxel, one dose of maytansine (0.1 mg/kg) and one dose of vehicle (negative control: 10 mice). The mice are then divided into 4 groups for MCF7 cancer cells: one high dose (2.0 mg/kg: 10 mice) group of MV-A, one low dose (1.0 mg/kg: 10 mice) group of MV-A, one dose (5.0 mg/kg: 10 mice) of paclitaxel, and one dose of vehicle (negative control: 10 mice). Every other day administration via i.p. (intraperitoneal), i.v. (intravenous), or oral, respectively are scheduled for 21 days for the HCT116 groups. Twice a week injections administered via i.p. (intraperitoneal), i.v. (intravenous), or oral, respectively are scheduled for […] for the MCF7 groups. Weights of mice and tumor diameters are measured twice a week until the end of the experiment. The tumor size in mm^3 was calculated by the formula: tumor size=length×width×height (L×W×H).

For data set [17], the system named is cervical cancer cell line (Hela). Kind of data set: Hollow fiber in vivo test, Hela. As to conditions: 2.0 mg/kg. Further details: species or system mouse. As to the method:
as §3

The test system of data set [18] is breast cancer cell line (MCF7). Kind of data set: Hollow fiber in vivo test, MCF7. Further details: species or system mouse. Particulars: 2.0 mg/kg. As to the method:
as §3

Data set [19] concerns 3T3-L1 murine adipocytes. Particulars: literature (Shimokawa et al. 2006); cited from earlier work.

This is an account of results in patent US9963485B2, “Cycloheptapeptide agents for treatment of cancer and obesity diseases” (Hong Kong Baptist University, priority 2012, dated 2018).

Read-outs that look alike come from different tables or passages of the source. *1 amine or outer side, *2 acyl side, *3 side chain or, on linkers, in order; H or OH if unused. Where a SMILES comes first, the peptide text is derived from it. [ ]: non-standard residue; d: D form. X3 = CC1C(C)C1C(N[*:1])C(=O)[*:2]; dGly(cPr) = N[C@@H](C(=O)O)C1CC1; Gly(cPr) = N[C@H](C(=O)O)C1CC1; NMeL = CN[CH](CC(C)C)C(=O)O; NMeA = CN[CH](C)C(=O)O; dNMeA = CN[C@H](C)C(=O)O

In general, IC50 refers to the concentration at which inhibition is half-maximal. As usually defined, the IC90 is the point of the concentration-response curve where the effect stands at 90%. On to `CC(C)CC1NC(=O)C(C)N(C)C(=O)C(C)N(C)C(=O)C(C2C(C)C2C)NC(=O)C(CC(C)C)N(C)C(=O)C(C)N(C)C(=O)C(C2C(C)C2C)NC1=O` (centres unmarked) [Compound 1] (cyclo([X3][NMeA][NMeA]L[X3][NMeA][NMeL]); configuration not given here), for which the half-inhibitory concentration (IC50) in [1] is 0.24 nM; in [3], 0.26 nM; in data set [5] it was 0.05 nM; in [6], 0.42 nM; in [7] (HCT116 cells, 72 hours) it was 0.25 nM. In addition, the IC90 in data set [1] was 1.02 nM; in data set [3], 1.47 nM; in data set [7] (read-out: Cytotoxic activity IC90, HCT116, HCT116 cells), 0.69 nM. For the same molecule, the “Inhibition of cell growth of murine P388 leukemia cells” value in [2] amounted to 100%. In addition, the “Mortality during the treatments” value in data set [4] (1 mg/kg and 2 mg/kg) is “No mice die”. Further, the “Toxicity observed from dissection of the mice” value in [4] (1 mg/kg and 2 mg/kg) is recorded as “No sign of toxicity”. In addition, the “Drop of average weight of mice after the first treatment” value is on record as 1.5 g in data set [4] (1 mg/kg) and 2.2 g in [4] (2 mg/kg). In addition, the figures for the “Drop of average weight of mice after six treatments” value in data set [4] (1 mg/kg) and in data set [4] (2 mg/kg) were 1.7 g and 4.7 g, respectively. For the same molecule, the “Cytotoxic activity IC90, KB” value in data set [5] is listed as 1.65 nM.

`CC(C)CC1NC(=O)C(C)N(C)C(=O)C(C)N(C)C(=O)C(C2C(C)C2C)NC(=O)C(CC(C)CO)N(C)C(=O)C(C)N(C)C(=O)C(C2C(C)C2C)NC1=O` (centres unmarked) [Compound 2]: the IC50 in data set [1] came out at 6.35 nM; in [3], 5.83 nM; in data set [5] it was 0.79 nM; in [7] (HCT116 cells, 72 hours) it was 2.62 nM. For the same molecule, the concentration for an effect of 90% (IC90) worked out at 6.84 nM in [1] and 9.21 nM in [3]. Also, the “Inhibition of cell growth of murine P388 leukemia cells” value in data set [2] was found to be 100%. In [5], the “Cytotoxic activity IC90, KB” value stood at 11.4 nM.

Broadly, the EC50 is the concentration needed to bring the measured effect to its halfway point. On to `CC(C)C[C@H]1NC(=O)[C@@H](C)N(C)C(=O)[C@H](C)N(C)C(=O)[C@H](C2CC2)NC(=O)[C@H](CC(C)C)N(C)C(=O)[C@H](C)N(C)C(=O)[C@@H](C2CC2)NC1=O` [MV-D] (cyclo([Gly(cPr)][NMeA][dNMeA][dL][dGly(cPr)][NMeA][NMeL])), for which the EC50 in [8] stood at 13.3 nM. The values for the half-maximal inhibitory concentration (IC50) in data set [9] and in [11] were greater than 5000 nM and 1240 nM, respectively. The “Inhibition activity against the cancer cells” value in [10] was “no inhibition activity”.

As to `CC(=O)O[C@H]1C(=O)[C@@]2(C)[C@H]([C@H](OC(=O)c3ccccc3)[C@]3(O)C[C@H](OC(=O)[C@H](O)[C@@H](NC(=O)c4ccccc4)c4ccccc4)C(C)=C1C3(C)C)[C@]1(OC(C)=O)CO[C@@H]1C[C@@H]2O` [Paclitaxel, reference compound], the half-maximal inhibitory concentration (IC50) is 4.81 nM in data set [1] (Homo sapiens); 3.24 nM in data set [3] (Homo sapiens); 3.38 nM in data set [5] (Homo sapiens); 15.9 nM in data set [6] (Homo sapiens); 5.78 nM in [7] (Homo sapiens, HCT-116, 72 h). Further, the concentration for an effect of 90% (IC90) is greater than 20 nM in data set [1] (Homo sapiens); greater than 30 nM in data set [3] (Homo sapiens); greater than 20 nM in data set [7] (Homo sapiens, HCT-116, read-out: Cytotoxic activity IC90, HCT116). For the same molecule, in data set [5], the “Cytotoxic activity IC90, KB” value is recorded as greater than 20 nM. In addition, the “Inhibition (%)” value came to 39.8% in data set [12] (A549-IP); 0% in data set [12] (A549-SC); 38.1% in data set [14] (A375-IP); 7.8% in data set [14] (A375-SC); 60.4% in data set [15] (HCT116-IP); 0% in data set [15] (HCT116-SC). Moreover, the “Inhibition (%)” value amounted to 69.5% in data set [17] (Hela-IP), 11.1% in data set [17] (Hela-SC), 70.7% in data set [18] (MCF7-IP) and 0% in data set [18] (MCF7-SC). For the same molecule, in [13], the “Inhibition of HCT116 tumor growth (excised tumor weights)” value is given as 37.6%. In data set [16], the “Inhibition of MCF7 tumor growth (excised tumor weights)” value is on record as 28.2%.

On to Ternatin, for which the “Inhibition of fat accumulation against 3T3-L1 murine adipocytes” value in data set [19] was “potent inhibitor of fat accumulation”.
